Test results taken from PMC11277489, “Novel Piperazine Derivatives of Vindoline as Anticancer Agents” (International Journal of Molecular Sciences, 2024).
Where two headings read alike, the source gives them in different places.

Assays:
[1] = system: MDA-MB-435; test: NCI60 one-dose screen (10 μM), Melanoma; assay type: cell-based; details: Homo sapiens
[2] = system: UACC-257; test: NCI60 one-dose screen (10 μM), Melanoma; assay type: cell-based; details: Homo sapiens
[3] = system: NCI-H322M; test: NCI60 one-dose screen (10 μM), Non-small Cell Lung Cancer; assay type: cell-based; details: Homo sapiens, read-out: Growth percent rate
[4] = system: SNB-19; test: NCI60 one-dose screen (10 μM), CNS Cancer; assay type: cell-based; details: Homo sapiens
[5] = system: HS 578T; test: NCI60 one-dose screen (10 μM), Breast Cancer; assay type: cell-based; details: Homo sapiens, read-out: Growth percent rate
[6] = system: HCC-2998; test: NCI60 one-dose screen (10 μM), Colon Cancer; assay type: cell-based; details: Homo sapiens
[7] = system: KM12; test: NCI60 one-dose screen (10 μM), Colon Cancer; assay type: cell-based, human; details: Homo sapiens
[8] = system: HL-60(TB); test: NCI60 one-dose screen (10 μM), Leukemia; assay type: cell-based; details: Homo sapiens
[9] = system: HCT-15; test: NCI60 one-dose screen (10 μM), Colon Cancer; assay type: cell-based; details: Homo sapiens
[10] = system: NCI-H522; test: NCI60 one-dose screen (10 μM), Non-small Cell Lung Cancer; assay type: cell-based; details: Homo sapiens
[11] = system: COLO 205; test: NCI60 one-dose screen (10 μM), Colon Cancer; assay type: cell-based, human; details: Homo sapiens
[12] = system: SK-MEL-2; test: NCI60 one-dose screen (10 μM), Melanoma; assay type: cell-based; details: Homo sapiens
[13] = system: RXF 393; test: NCI60 one-dose screen (10 μM), Renal Cancer; assay type: cell-based, human; details: Homo sapiens
[14] = system: MCF7; test: NCI60 one-dose screen (10 μM), Breast Cancer; assay type: cell-based; details: Homo sapiens
[15] = system: HOP-62; test: NCI60 one-dose screen (10 μM), Non-small Cell Lung Cancer; assay type: cell-based; details: Homo sapiens
[16] = system: CCRF-CEM; test: NCI60 one-dose screen (10 μM), Leukemia; assay type: cell-based; details: Homo sapiens, read-out: Growth percent rate
[17] = system: IGROV1; test: NCI60 one-dose screen (10 μM), Ovarian Cancer; assay type: cell-based; details: Homo sapiens
[18] = system: SF-539; test: NCI60 one-dose screen (10 μM), CNS Cancer; assay type: cell-based, human; details: Homo sapiens
[19] = system: M14; test: NCI60 one-dose screen (10 μM), Melanoma; assay type: cell-based; details: Homo sapiens
[20] = system: SF-295; test: NCI60 one-dose screen (10 μM), CNS Cancer; assay type: cell-based; details: Homo sapiens
[21] = system: OVCAR-8; test: NCI60 one-dose screen (10 μM), Ovarian Cancer; assay type: cell-based; details: Homo sapiens
[22] = system: HT29; test: NCI60 one-dose screen (10 μM), Colon Cancer; assay type: cell-based; details: Homo sapiens
[23] = system: A549/ATCC; test: NCI60 one-dose screen (10 μM), Non-small Cell Lung Cancer; assay type: cell-based; details: Homo sapiens
[24] = system: SW-620; test: NCI60 one-dose screen (10 μM), Colon Cancer; assay type: cell-based; details: Homo sapiens
[25] = system: SN12C; test: NCI60 one-dose screen (10 μM), Renal Cancer; assay type: cell-based; details: Homo sapiens, read-out: Growth percent rate
[26] = system: TK-10; test: NCI60 one-dose screen (10 μM), Renal Cancer; assay type: cell-based; details: Homo sapiens
[27] = system: OVCAR-4; test: NCI60 one-dose screen (10 μM), Ovarian Cancer; assay type: cell-based; details: Homo sapiens
[28] = system: SK-MEL-5; test: NCI60 one-dose screen (10 μM), Melanoma; assay type: cell-based, human; details: Homo sapiens
[29] = system: LOX IMVI; test: NCI60 one-dose screen (10 μM), Melanoma; assay type: cell-based, human; details: Homo sapiens, LOX IMVI, read-out: Growth percent rate
[30] = system: OVCAR-3; test: NCI60 one-dose screen (10 μM), Ovarian Cancer; assay type: cell-based; details: Homo sapiens
[31] = system: EKVX; test: NCI60 one-dose screen (10 μM), Non-small Cell Lung Cancer; assay type: cell-based; details: Homo sapiens, read-out: Growth percent rate
[32] = system: SF-268; test: NCI60 one-dose screen (10 μM), CNS Cancer; assay type: cell-based; details: Homo sapiens
[33] = system: MALME-3M; test: NCI60 one-dose screen (10 μM), Melanoma; assay type: cell-based; details: Homo sapiens, read-out: Growth percent rate
[34] = system: NCI-H23; test: NCI60 one-dose screen (10 μM), Non-small Cell Lung Cancer; assay type: cell-based; details: Homo sapiens
[35] = system: ACHN; test: NCI60 one-dose screen (10 μM), Renal Cancer; assay type: cell-based; details: Homo sapiens, read-out: Growth percent rate
[36] = system: MOLT-4; test: NCI60 one-dose screen (10 μM), Leukemia; assay type: cell-based, human; details: Homo sapiens
[37] = system: K-562; test: NCI60 one-dose screen (10 μM), Leukemia; assay type: cell-based; details: Homo sapiens
[38] = system: SK-MEL-28; test: NCI60 one-dose screen (10 μM), Melanoma; assay type: cell-based; details: Homo sapiens
[39] = system: 786–0; test: NCI60 one-dose screen (10 μM), Renal Cancer; assay type: cell-based; details: Homo sapiens
[40] = system: RPMI-8226; test: NCI60 one-dose screen (10 μM), Leukemia; assay type: cell-based; details: Homo sapiens
[41] = system: HCT-116; test: NCI60 one-dose screen (10 μM), Colon Cancer; assay type: cell-based; details: Homo sapiens
[42] = system: CAKI-1; test: NCI60 one-dose screen (10 μM), Renal Cancer; assay type: cell-based; details: Homo sapiens
[43] = 10 μM, Non-small Cell Lung Cancer

SMILES: CCC12C=CCN3CCC4(c5cc(NC(=O)CCl)c(OC)cc5N(C)C4C(O)(C(=O)OC)C1OC(C)=O)C32 (stereo not drawn) [Compound 12, 10-chloroacetamidovindoline]
- activity at 10 µM ([1]; 10 μM, MDA-MB-435, Melanoma, read-out: Growth percent rate): 39.9%
- activity at 10 µM ([2]; 10 μM, UACC-257, Melanoma, read-out: Growth percent rate): -3.69%
- activity at 10 µM [3, 43]: 58.9%
- activity at 10 µM ([4]; 10 μM, SNB-19, CNS Cancer, read-out: Growth percent rate): 23.1%
- activity at 10 µM ([5]; 10 μM, HS 578T, Breast Cancer): -16.8%
- activity at 10 µM ([6]; 10 μM, HCC-2998, Colon Cancer, read-out: Growth percent rate): 24.2%
- activity at 10 µM ([7]; 10 μM, KM12, Colon Cancer, read-out: Growth percent rate): 41.5%
- activity at 10 µM ([8]; 10 μM, HL-60(TB), Leukemia, read-out: Growth percent rate): 37.9%
- activity at 10 µM ([9]; 10 μM, HCT-15, Colon Cancer, read-out: Growth percent rate): 50.1%
- activity at 10 µM ([10]; 10 μM, NCI-H522, Non-small Cell Lung Cancer, read-out: Growth percent rate): 8.28%
- activity at 10 µM ([11]; 10 μM, COLO 205, Colon Cancer, read-out: Growth percent rate): 87.2%
- activity at 10 µM ([12]; 10 μM, SK-MEL-2, Melanoma, read-out: Growth percent rate): -69.6%
- activity at 10 µM ([13]; 10 μM, RXF 393, Renal Cancer, read-out: Growth percent rate): -32.6%
- activity at 10 µM ([14]; 10 μM, MCF7, Breast Cancer, read-out: Growth percent rate): 2.74%
- activity at 10 µM ([15]; 10 μM, HOP-62, Non-small Cell Lung Cancer, read-out: Growth percent rate): -57.6%
- activity at 10 µM ([16]; 10 μM, Leukemia): 12.6%
- activity at 10 µM ([17]; IGROV-1, 10 μM, IGROV1, Ovarian Cancer, read-out: Growth percent rate): 27.5%
- activity at 10 µM ([18]; 10 μM, SF-539, CNS Cancer, read-out: Growth percent rate): 4.74%
- activity at 10 µM ([19]; 10 μM, M14, Melanoma, read-out: Growth percent rate): 37%
- activity at 10 µM ([20]; 10 μM, SF-295, CNS Cancer, read-out: Growth percent rate): 52.2%
- activity at 10 µM ([21]; 10 μM, OVCAR-8, Ovarian Cancer, read-out: Growth percent rate): 29.6%
- activity at 10 µM ([22]; HT-29, 10 μM, HT29, Colon Cancer, read-out: Growth percent rate): 54.1%
- activity at 10 µM ([23]; 10 μM, A549/ATCC, Non-small Cell Lung Cancer, read-out: Growth percent rate): 64%
- activity at 10 µM ([24]; 10 μM, SW-620, Colon Cancer, read-out: Growth percent rate): 64.5%
- activity at 10 µM ([25]; 10 μM, Renal Cancer): 11%
- activity at 10 µM ([26]; 10 μM, TK-10, Renal Cancer, read-out: Growth percent rate): 24.8%
- activity at 10 µM ([27]; 10 μM, OVCAR-4, Ovarian Cancer, read-out: Growth percent rate): -17.1%
- activity at 10 µM ([28]; 10 μM, SK-MEL-5, Melanoma, read-out: Growth percent rate): -17.6%
- activity at 10 µM ([29]; 10 μM, Melanoma): 11.5%
- activity at 10 µM ([30]; 10 μM, OVCAR-3, Ovarian Cancer, read-out: Growth percent rate): -14.7%
- activity at 10 µM [31, 43]: 46.6%
- activity at 10 µM ([32]; 10 μM, SF-268, CNS Cancer, read-out: Growth percent rate): -0.99%
- activity at 10 µM ([33]; 10 μM, MALME-3M, Melanoma): -14.1%
- activity at 10 µM ([34]; 10 μM, NCI-H23, Non-small Cell Lung Cancer, read-out: Growth percent rate): -4.42%
- activity at 10 µM ([35]; 10 μM, Renal Cancer): 37.3%
- activity at 10 µM ([36]; 10 μM, MOLT-4, Leukemia, read-out: Growth percent rate): -26.9%
- activity at 10 µM ([37]; K562, 10 μM, K-562, Leukemia, read-out: Growth percent rate): 36.4%
- activity at 10 µM ([38]; 10 μM, SK-MEL-28, Melanoma, read-out: Growth percent rate): -0.03%
- activity at 10 µM ([39]; 10 μM, 786-0, Renal Cancer, read-out: Growth percent rate): 21.3%
- activity at 10 µM ([40]; 10 μM, RPMI-8226, Leukemia, read-out: Growth percent rate): -24.7%
- activity at 10 µM ([41]; 10 μM, HCT-116, Colon Cancer, read-out: Growth percent rate): 41.2%
- activity at 10 µM ([42]; 10 μM, CAKI-1, Renal Cancer, read-out: Growth percent rate): 43.8%

SMILES: CCC12C=CCN3CCC4(c5ccc(OC)cc5N(C)C4C(O)(C(=O)OC)C1O)C32 (stereo not drawn) [Compound 13, 17-desacetylvindoline]
- activity at 10 µM ([1]; MDA-MB-435, read-out: Growth percent rate): 89%
- activity at 10 µM ([2]; UACC-257, read-out: Growth percent rate): 96.7%
- activity at 10 µM [3]: 92.8%
- activity at 10 µM ([4]; SNB-19, read-out: Growth percent rate): 97.4%
- activity at 10 µM ([5]; Hs-578T): 100%
- activity at 10 µM ([6]; HCC 2998, read-out: Growth percent rate): 96.8%
- activity at 10 µM ([7]; KM12, read-out: Growth percent rate): 103%
- activity at 10 µM ([8]; HL-60, read-out: Growth percent rate): 119%
- activity at 10 µM ([9]; HCT-15, read-out: Growth percent rate): 99.2%
- activity at 10 µM ([10]; NCI-H522, read-out: Growth percent rate): 94%
- activity at 10 µM ([11]; COLO 205, read-out: Growth percent rate): 118%
- activity at 10 µM ([12]; SK-MEL-2, read-out: Growth percent rate): 116%
- activity at 10 µM ([13]; RXF 393, read-out: Growth percent rate): 104%
- activity at 10 µM ([14]; MCF7, read-out: Growth percent rate): 95.7%
- activity at 10 µM ([15]; HOP-62, read-out: Growth percent rate): 102%
- activity at 10 µM [16]: 103%
- activity at 10 µM ([17]; IGROV-1, read-out: Growth percent rate): 95.8%
- activity at 10 µM ([18]; SF-539, read-out: Growth percent rate): 96.6%
- activity at 10 µM ([19]; M14, read-out: Growth percent rate): 94.7%
- activity at 10 µM ([20]; SF-295, read-out: Growth percent rate): 101%
- activity at 10 µM ([21]; OVCAR-8, read-out: Growth percent rate): 103%
- activity at 10 µM ([22]; HT-29, read-out: Growth percent rate): 102%
- activity at 10 µM ([23]; A549, read-out: Growth percent rate): 103%
- activity at 10 µM ([24]; SW-620, read-out: Growth percent rate): 99.4%
- activity at 10 µM [25]: 99%
- activity at 10 µM ([26]; TK-10, read-out: Growth percent rate): 93.3%
- activity at 10 µM ([27]; OVCAR-4, read-out: Growth percent rate): 95.8%
- activity at 10 µM ([28]; SK-MEL-5, read-out: Growth percent rate): 90.5%
- activity at 10 µM [29]: 97.5%
- activity at 10 µM ([30]; OVCAR-3, read-out: Growth percent rate): 112%
- activity at 10 µM [31]: 98.9%
- activity at 10 µM ([32]; SF-268, read-out: Growth percent rate): 107%
- activity at 10 µM ([33]; Malme-3M): 90.8%
- activity at 10 µM ([34]; NCI-H23, read-out: Growth percent rate): 93%
- activity at 10 µM [35]: 96%
- activity at 10 µM ([36]; MOLT-4, read-out: Growth percent rate): 100%
- activity at 10 µM ([37]; K562, read-out: Growth percent rate): 101%
- activity at 10 µM ([38]; SK-MEL-28, read-out: Growth percent rate): 92.1%
- activity at 10 µM ([39]; 786-0, read-out: Growth percent rate): 97.7%
- activity at 10 µM ([40]; RPMI-8226, read-out: Growth percent rate): 99.4%
- activity at 10 µM ([41]; HCT-116, read-out: Growth percent rate): 99.2%
- activity at 10 µM ([42]; CAKI-1, read-out: Growth percent rate): 98.2%
